# According to US12306191B2, “Composition for diagnosis of degenerative neurological diseases” (KYUNGPOOK NATIONAL UNIVERSITY INDUSTRY—ACADEMIC COOPERATION …, priority 2018, dated 2025):
# Assays:
# APP/PS1 mice [1] = experiment: Immunofluorescence of microglia (Iba1) and astrocytes (GFAP) in brain cortex of injected APP/PS1 mice; format: in vivo, mouse; conditions: 7-month-old APP/PS1 mice, i.p. daily 4 weeks, 5 mg/kg N-acetyl sphingosine, 1 mg/kg FTY720, 3 uM S1P; for microglia compared to APP/PS1 mice: FIG. 9a; for astrocytes compared to APP/PS1 mice: FIG. 9b
# Procedure: (§1) After the cerebrum and the hippocampus of a mouse were immobilized, anti-20G10 against amyloid-β (Aβ) 42 (mouse, 1:1000) and anti-G30 against Aβ 40 (rabbit, 1:1000), anti-MAP2 (chicken, 1:2000), anti-Synaptophysin (mouse, 1:100), anti-Synapsin1 (rabbit, 1:500), anti-PSD95 (mouse, 1:100), anti-Iba-1 (rabbit, 1:500), and anti-GFAP (rabbit, 1:500) were incubated together. The sites were analyzed using a confocal laser scanning microscope or an Olympus BX51 microscope equipped with Fluoview SV1000 imaging software (Olympus FV1000, Japan). Percentages of areas of the stained sites to an area of total tissues were quantified using Metamorph software (Molecular Devices).
# (§2) In order to measure neuroinflammatory resolution factor, nerve cells from the mouse's cerebrum were incubated and then treated with 10 nM N-acetyl sphingosine 1 phsosphate (Toronto Research chemicals, C262710) and N-acetyl sphingosine (Sigma, 01912) to prepare CM. For COX2 acetylation analysis, nerve cells were incubated from the mouse's cerebrum and treated with 2uCi [^14C] N-acetyl sphingosine (ARC, ARC1024) and then prepared. In addition, for an in vivo experiment, 5 mg/kg N-acetyl sphingosine (Sigma, 01912), 1 mg/kg FTY720, and 3 uM S1P were injected into 7-month-old APP/PS1 mice daily for 4 weeks through intraperitoneal injection.
# The present inventors confirmed AD lesions by injecting N-acetyl sphingosine, one of COX2 acetylating agents identified through the above experiment, into an APP/PS1 animal model. First, in order to determine an effect of N-acetyl sphingosine on neuroinflammatory response by secreting the neuroinflammatory resolution factor, changes in microglia and astrocytes were observed. […] However, when sphingosine derivatives FTY720 and S1P were injected, there was no difference in the activity of microglia and astrocytes compared to the Alzheimer's animal model, and there was no effect of reducing Aβ deposition and improving memory (FIGS. 9a and 9b).
# APP/PS1 nerve cells = experiment: Secretion of neuroinflammatory resolution factor in APP/PS1 nerve cells treated with COX2 acetylating agent; format: cell-based, mouse; conditions: 10 nM, FIG. 8b
# Procedure: A commercially available ELISA kit (Biosource) was used, and the hemispheres of mice were homogenized and added in a buffer containing 0.02 M of guanidine to prepare a sample for Aβ ELISA. In order to measure neuroinflammatory resolution factor, nerve cells from the mouse cerebrum were incubated to prepare conditioned media (CM). Thereafter, according to the manufacturer's manual, ELISA for Aβ and SPM was performed.
# as §2
# First, in order to confirm whether the selected compounds promote the secretion of neuroinflammatory resolution factor in nerve cells, APP/PS1 nerve cells were treated with N-acetyl sphingosine 1 phsosphate or N-acetyl sphingosine, and then the expression levels of the neuroinflammatory resolution factor were confirmed. As a result, it was confirmed that the expression levels of LxA4 and RvE1 in nerve cells of APP/PS1 mice were recovered when treated with N-acetyl sphingosine 1 phsosphate or N-acetyl sphingosine (FIG. 8b).
# APP/PS1 mice [2] = experiment: Morris Water Maze test of injected APP/PS1 mice; format: in vivo, mouse; conditions: 7-month-old APP/PS1 mice, i.p. daily 4 weeks; 5 mg/kg N-acetyl sphingosine, 1 mg/kg FTY720, 3 uM S1P; FIG. 9d
# Procedure: In order to confirm potential effects on learning and memory, Morris water maze (MWM) and fear conditioning tests were performed. In the MWM, the mouse learned a task 4 times a day for 10 days, a platform was removed on day 11, and a probe trial was performed. In the fear conditioning, on day 1, the mouse was added in a conditioning chamber, and sound stimulation (10 kHz, 70 dB) and electrical stimulation (0.3 mA, 1 s) were applied. On day 2, the memory on a space was confirmed without stimulation in the same conditioning chamber as day 1, and on day 3, a memory test for fear was performed when only the sound stimulation was applied in another conditioning chamber. An open field test was performed to evaluate motor ability and immediate activity. In the open field test, the mouse was placed in a quadrangular box for 10 minutes and then overall motor ability and time and distances were measured.
# as §2, with “In addition, for an in vivo experiment, 5 mg/kg N-acetyl sphingosine (Sigma, 01912), 1 mg/kg FTY720, and 3 uM S1P were injected into 7-month-old APP/PS1 mice daily for 4 weeks through intraperitoneal injection.” left out
# COX2 [3] = experiment: COX2 acetylation analysis with [14C] N-acetyl sphingosine; format: cell-based, mouse; conditions: 2uCi [14C] N-acetyl sphingosine; FIG. 8c
# Procedure: as §2
# COX2 [4] = molecular target: T1, COX2 (Homo sapiens, UniProt P35354); experiment: Western blot of recombinant COX2 protein with ac-S565 antibody after aspirin or N-AS treatment; format: biochemical; conditions: FIG. 10
# T1 sequence (P35354 18-604): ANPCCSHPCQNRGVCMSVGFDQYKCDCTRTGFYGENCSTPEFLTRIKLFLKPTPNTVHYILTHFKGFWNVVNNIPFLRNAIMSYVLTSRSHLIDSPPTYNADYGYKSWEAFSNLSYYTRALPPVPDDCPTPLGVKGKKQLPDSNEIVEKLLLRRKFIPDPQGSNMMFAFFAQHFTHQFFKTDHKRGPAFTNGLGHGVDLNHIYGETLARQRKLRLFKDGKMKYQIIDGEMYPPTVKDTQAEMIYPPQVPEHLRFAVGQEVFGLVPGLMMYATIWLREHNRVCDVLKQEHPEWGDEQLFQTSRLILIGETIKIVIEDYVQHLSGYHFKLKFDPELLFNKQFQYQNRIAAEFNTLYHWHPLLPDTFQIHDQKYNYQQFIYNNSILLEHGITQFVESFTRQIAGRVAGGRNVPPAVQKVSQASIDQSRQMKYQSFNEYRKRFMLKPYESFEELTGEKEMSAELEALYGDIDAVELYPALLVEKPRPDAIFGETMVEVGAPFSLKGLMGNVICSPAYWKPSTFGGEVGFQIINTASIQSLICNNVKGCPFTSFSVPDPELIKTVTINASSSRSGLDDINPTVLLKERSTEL
# Procedure: (§3) In addition, a Western blot sample was prepared by reacting a recombinant COX2 protein with aspirin and N-acetyl sphingosine (Sigma, 01912, N-AS). In addition, microglia were isolated from the cerebra of wild-type and APP/PS1 9-month-old mice to prepare a Western blot sample, and microglia (Applied Biologics Materials, USA) were incubated with amyloid beta, and then a Western blot sample was prepared. The prepared Western blot sample was subjected to electrophoresis on a polyacrylamide gel to isolate proteins, transferred to a nitrocellulose filter, and then bound with anti-ac-S565 (rabbit, 1:500), anti-COX2 (rabbit, 1:1,000, Abcam), and anti-actin (mouse, 1:1,000, Santa Cruz) antibodies, and then bands were shaped using secondary antibodies, and quantified and analyzed using ImageJ (National Institutes of Health, USA).
# APP/PS1 mice [5] = experiment: Thioflavin S staining of Aβ plaques in brain of injected APP/PS1 mice; format: in vivo, mouse; conditions: 7-month-old APP/PS1 mice, i.p. daily 4 weeks; 5 mg/kg N-acetyl sphingosine, 1 mg/kg FTY720, 3 uM S1P; FIG. 9c
# Procedure: as §1
# as §2, with “injection. […]” for “injection.”
# COX2 [6] = molecular target: T1, COX2; experiment: LC-MS/MS identification of the acetylation site of COX2; format: biochemical; conditions: FIG. 8d
# Procedure: To confirm an acetylation site of COX2, a COX2 enzyme was precipitated with trichroloacetic acid (Merck) and dried. The dried extract was resuspended in 10 μL of a 5 M urea solution, and a 0.1 M ammonium bicarbonate buffer was incubated at 37° C. with 1 μg trypsin (Promega) for 16 hours. Thereafter, the sample was treated with 1 M DTT (GE Healthcare) at room temperature for 1 hour and then alkylated with 1M iodoacetamide (Sigma) for 1 hour. A protein sample was loaded onto a ZORBAX 300SB-C18 column for sequencing. Peptides were identified with BioTools 3.2 SR5 (Bruker Daltonics).
# In addition, it was confirmed that serine 565 (S565) for a peptide 560-[…]-575 of COX2 was acetylated in the presence of N-acetyl sphingosine (FIG. 8d).
# SphK1 = SphK1 (Homo sapiens, UniProt Q9NYA1); conditions: read-out: KM of acetyl group binding to SphK1; in the presence of 10 mM sphingosine; FIG. 1a
# human-derived microglia [7] = experiment: Fluorescence immunostaining of COX2 and ac-S565 in human-derived microglia treated with amyloid beta; format: cell-based; conditions: FIGS. 13a, 13b
# Procedure: In addition, cerebral tissues of wild-type and APP/PS1 9-month-old mice and human-derived microglia were incubated together with anti-ac-S565 (rabbit, 1:100), anti-COX2 (mouse, 1:500, Thermo Fisher Scientific), and anti-Iba1 (goat, 1:500, Abcam). In the cerebral tissues and the human-derived microglia, percentages of cells stained with anti-ac-S565, anti-COX2 and anti-Iba1 among cells stained with anti-COX2 and anti-Iba1 were quantified and analyzed using MetaMorph (Molecular Devices, USA).
# The present inventors created a neuroinflammatory environment by treating human-derived microglia with amyloid beta, and then confirmed the level of S565 acetylation of COX2 through fluorescence immunostaining.
# human-derived microglia [8] = experiment: Western blotting of COX2 and ac-S565 in human-derived microglia treated with amyloid beta; format: cell-based; conditions: FIGS. 14a, 14b
# Procedure: as §3
# The present inventors created a neuroinflammatory environment by treating human-derived microglia with amyloid beta, and then reconfirmed the level of S565 acetylation of COX2 through Western blotting.
# Chain of SphK1 (Q9NYA1 whole entry, species assumed): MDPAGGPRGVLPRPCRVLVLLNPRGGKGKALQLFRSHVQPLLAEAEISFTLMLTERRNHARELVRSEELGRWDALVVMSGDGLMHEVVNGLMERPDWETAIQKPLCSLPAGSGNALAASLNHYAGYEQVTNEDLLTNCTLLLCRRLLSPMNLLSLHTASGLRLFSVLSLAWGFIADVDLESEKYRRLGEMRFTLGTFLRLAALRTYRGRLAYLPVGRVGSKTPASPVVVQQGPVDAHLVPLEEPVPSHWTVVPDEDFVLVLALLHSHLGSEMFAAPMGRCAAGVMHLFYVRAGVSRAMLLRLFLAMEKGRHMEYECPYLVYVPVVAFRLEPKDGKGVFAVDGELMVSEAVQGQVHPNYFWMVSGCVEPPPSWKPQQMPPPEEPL
molecule,measurement,setting,value
CCCCCCCCc1ccc(CCC(N)(CO)CO)cc1 [FTY720],microglia compared to APP/PS1 mice,APP/PS1 mice [1],no difference
same,astrocytes compared to APP/PS1 mice,APP/PS1 mice [1],no difference
CCCCCCCCCCCCC/C=C/[C@@H](O)[C@H](COP(=O)(O)O)NC(C)=O [N-acetyl sphingosine 1 phsosphate],expression level of LxA4,APP/PS1 nerve cells,recovered
same,expression level of RvE1,APP/PS1 nerve cells,recovered
CCCCCCCCCCCCC/C=C/[C@@H](O)[C@H](CO)NC(C)=O [N-acetyl sphingosine],expression level of LxA4,APP/PS1 nerve cells,recovered
same,expression level of RvE1,APP/PS1 nerve cells,recovered
same,memory and cognition,APP/PS1 mice [2],improved
same,"COX2 acetylation compared with sample mixed with SphK1, acetyl-CoA and sphingosine",COX2 [3],more acetylation
same,ac-S565 band of treated COX2 in Western blot (S565 acetylation),COX2 [4],strongly shown
same,amount of Aβ / Aβ deposition compared to APP/PS1 mice,APP/PS1 mice [5],significantly lowered
same,acetylation of serine 565 (S565) of COX2 peptide 560-575,COX2 [6],acetylated
same,microglia compared to APP/PS1 mice,APP/PS1 mice [1],remarkable decrease
same,astrocytes compared to APP/PS1 mice,APP/PS1 mice [1],remarkable decrease
"CCCCCCCCCCCCC/C=C/[C@@H](O)[C@@H](N)COP(=O)(O)O [S1P, sphingosine-1-phosphate]",memory and cognition,APP/PS1 mice [2],no effect
same,amount of Aβ / Aβ deposition compared to APP/PS1 mice,APP/PS1 mice [5],no effect
same,microglia compared to APP/PS1 mice,APP/PS1 mice [1],no difference
same,astrocytes compared to APP/PS1 mice,APP/PS1 mice [1],no difference
CC(=O)SCCNC(=O)CCNC(=O)[C@H](O)C(C)(C)COP(=O)(O)OP(=O)(O)OC[C@H]1O[C@@H](n2cnc3c(N)ncnc32)[C@H](O)[C@@H]1OP(=O)(O)O [acetyl-CoA],Km,SphK1,58.2 µM
CC(=O)Oc1ccccc1C(=O)O [aspirin],ac-S565 band of treated COX2 in Western blot (S565 acetylation),COX2 [4],hardly detected
amyloid beta: amyloid beta used to treat human-derived microglia to create a neuroinflammatory environment,S565 acetylation of COX2 in microglia,human-derived microglia [7],decreased
same,expression of COX2 in microglia,human-derived microglia [7],increased
same,S565 acetylation of COX2 in microglia,human-derived microglia [8],decreased
same,expression of COX2 in microglia,human-derived microglia [8],increased
